Data set [1] has as its system jejunal mucosa (net anion secretion). Put plainly: Ussing chamber transepithelial short circuit current (Isc) with transport blockers/forskolin. In kind it is cell-based, mice. The settings on record: for bumetanide-insensitive Isc after mucosal addition of blocker: 10 μM NPPB, 100 μM glibenclamide; for basal Isc after bumetanide: 100 μM bumetanide in bath solution. From the text: To study active HCO3^− secretion, 8-week-old, non-irradiated and irradiated, male BALB/c mice were obtained from the National Cancer Institute. Mice were randomly divided into groups, and abdomens were irradiated according to the gastrointestinal acute radiation syndrome (GI ARS) model with a Shepherd Mark-I, using a ^137Cs source delivering γ-irradiation at 1.84 Gy/min. Radiation was given as a single fraction. The GI ARS model will achieve maximum radiation damage to intestinal tissues, and mimics intestinal injury during radiation therapy of pelvic or abdominal tumors.
Changes in short circuit current (Isc), both as a function of time following radiation and with increasing doses of radiation, were examined to determine the earliest time and the minimum radiation dose required to produce significant changes in Isc. These studies were approved by the University of Rochester Animal Care and Use Committee.
Following exsanguinations, jejunal segment was obtained by excluding the distal 12 cm of small intestine adjacent to the caecum. This segment was washed and flushed in ice-cold Ringer's solution before the mucosa was stripped from the underlying muscular layers (Zhang, Ameen et al. 2007). The mucosa was mounted between the 2 halves of an Ussing-type Lucite chamber with an area of 0.30 cm^2 (P2304, Physiologic instruments, San Diego, Calif. 92128 USA), and electrical parameters were recorded using a voltage/current clamp device (VCC MC-8, Physiologic instruments, San Diego, Calif. 92128 USA) (Vidyasagar et al. 2005; Vidyasagar et al. 2004; Zhang et al. 2007; Vidyasagar and Ramakrishna 2002).
To determine the contribution of NKCC1 to basal Isc, 100 μM bumetanide (Sigma-Aldrich Co., USA) was added to the bath solution.
To determine whether the bumetanide-insensitive portion of Isc occurs via an apical membrane anion channel, a non-specific anion channel blocker, 5-nitro-2-(3-phenylpropylamino)-benzoic acid (Sigma-Aldrich Co., USA) (10 μM NPPB), and a specific cystic fibrosis transmembrane conductance regulator (CFTR) blocker (100 μM glibenclamide, Sigma-Aldrich Co., USA) were applied.

Data set [2] relates to jejunum (HCO3^− secretion). Put plainly: pH stat measurement of HCO3^− secretion in stripped jejunal sheets. Format: cell-based, mice. As to conditions: for forskolin-stimulated HCO3^− secretion after blocker: blocker on luminal side (100 μM glibenclamide; NPPB). The procedure:
A Bi-burette TIM 856 (Radiometer Analytical SAS, Villeurbanne, France) was used to measure HCO3^− secretion in stripped jejunal sheets (Vidyasagar et al. 2005; Vidyasagar et al. 2004; Zhang et al. 2007). Automated pumps maintained a constant pH for luminal solution through the addition of 0.01 μl of 0.025 M sulfuric acid (H2SO4). Standard-to-stat pH calibration was established by adding a known quantity of H2SO4 to a weak buffering solution, which contains an increasing concentration of HCO3^− to produce a linear titration curve.
Jejunal tissues were exposed to a buffered solution on the bath side (serosal side), while the luminal side was exposed to an HCO3^− free, low-buffered solution (0.1-mM HEPES (4-(2-hydroxyethyl)-1-piperazineethanesulfonic acid) buffer, pH 7.4). The HCO3^− secretion was equivalent to the amount of acid added to the luminal solution to maintain the pH at 7.4 (or the stat pH). All experiments were performed under voltage-clamp conditions. HCO3^−-free solution was gassed with 100% O2 and HCO3^−-containing solution was gassed with 95% O2 and 5% CO2. The HCO3^− secretion was expressed as μeq h^−1·cm^−2 (Vidyasagar et al. 2005; Vidyasagar et al. 2004; Zhang et al. 2007).
After the tissue was mounted, HCO3^− secretions were initially present in the absence of bath HCO3^−, but rapidly fell towards 0 within 20-30 minutes. If bath HCO3^− was not present during the titration, the HCO3^− secretion remained close to 0. […] When inhibitors were added to the mucosal solution, the pH was adjusted and allowed to equilibrate for 30 minutes, until a steady rate of HCO3^− secretion was observed. When the inhibitor was added to the bath side, the tissue was also equilibrated for 30 minutes to achieve a steady rate of HCO3^− secretion (see Table 3).
All experiments were performed during the initial 1-hour steady-state period. 1 tissue from each animal was used for each experiment; only 1 experimental condition was studied with each tissue sample. All experiments were repeated for at least 4 times.

Another data set concerns glutamine transporter. Put plainly: Glutamine-stimulated Isc / saturation kinetics of glutamine transporter. The settings on record: increasing IR dose. In kind it is cell-based, mice.
The test system of data set [3] is mice with injury to small intestine mucosa. Put plainly: Oral administration of candidate nutrients in radiation, chemotherapy and Crohn's disease models. The procedure: In a Crohn's disease model, mice are injected with anti-CD3 mAb (acute inflammatory model to mimic conditions of Crohn's disease).
The alterations of absorptive capacity of nutrients are determined using disease models with injury to small intestine mucosa, i.e., the radiation model, chemotherapy model, and the Crohn's disease model. Specifically, a candidate nutrient is orally administered to control mice and mice that received irradiation, chemotherapy, and anti-CD3 mAb, respectively. In addition, compositions containing various combinations of the candidate nutrients are orally administered.
To determine the absorptive capacity of each nutrient, bioelectric measurements are performed using an Ussing chamber. The measurements include: a) the sodium coupled-amino acid current (ISC) and changes in conductance, b) changes in saturation kinetics of each nutrient and changes in the ISC following the administration of each nutrient; and c) the electrolyte absorption studies using isotope flux studies in the presence and absence of the specific candidate nutrient.

For another data set, the system named is GI tract mucosa. As to conditions: animal studies; cited from earlier work.
The subject of data set [4] is patients who have received pelvic radiation therapy. The settings on record: oral glutamine feeding; patients after pelvic radiation therapy; cited from earlier work.
The subject of a further data set is lysine-transporter. Put plainly: Lysine-stimulated Isc / lysine transport kinetics. Format: cell-based, mice.
For the next data set, the system named is IR mice. As to conditions: lysine 20 mg/mice/day orally for 5 days, thereafter every other day.
For data set [5] the following is noted: clinical trials; cited from earlier work.
The test system of the next data set is small intestine mucosa. As to conditions: mouse, in vivo.
For data set [6], the system named is jejunal mucosa (net anion secretion). Put plainly: Ussing chamber transepithelial short circuit current (Isc) with transport blockers/forskolin. In kind it is cell-based, mice. As to conditions: 10 μM bumetanide.
Where [7] appears, read: 3 Gy, blocker in lumen solution / mucosal addition (100 μM DIDS or glibenclamide; NPPB).
Where [8] appears, read: oral administration, radiation, chemotherapy and Crohn's disease models.
The mark [9] stands for this setting: oral feeding of an irradiated subject.

Where “and” joins values, the source holds several entries; their conditions need not be identical. Equal values may be shown once. Entries after “also recorded” stand apart in the source; their conditions may differ. Read-outs that look alike come from different tables or passages of the source.

By Km is commonly meant the substrate concentration at which the rate is half of its maximum.

From the text for IR mice: Gavage was used during the experiment, and treatments were given on the first 5 days after irradiation and every other day until 10 days after irradiation.

For `COc1ccc(Cl)cc1C(=O)NCCc1ccc(S(=O)(=O)NC(=O)NC2CCCCC2)cc1` [glibenclamide], the “bumetanide-insensitive Isc after mucosal addition of blocker” value in data set [1] (0-Gy mice) was found to be 0.1±0.01 μeq·h^−1·cm^−2. Also, the “HCO3^− secretion” value in data set [2] (0 Gy + bumetanide, tissues treated with forskolin, 100 μM blocker in lumen solution) was 0.5 ± 0.1^ μeq·h^−1·cm^−2; in data set [2] (0 Gy, blocker in lumen solution (100 μM DIDS or glibenclamide)), 0.5 ± 0.1^ μeq·h^−1·cm^−2; in [2] (3 Gy + bumetanide, 100 μM blocker in lumen solution), 0.2 ± 0.1^ns μeq·h^−1·cm^−2; in data set [2] (setting [7]) it was 0.11±0.1 μeq·h^−1·cm^−2 and 0.1 ± 0.1^ns μeq·h^−1·cm^−2. The “forskolin-stimulated HCO3^− secretion after blocker” value in data set [2] (0 Gy + forskolin) is recorded as 0.1 ± 0.1^ μeq·h^−1·cm^−2; in data set [2] (0 Gy + forskolin, listed as Glibenclamide) it was 0.1±0.1 μeq·h^−1·cm^−2.

With `NC(=O)CC[C@H](N)C(=O)O` [glutamine], the “Km of glutamine transporter (saturation kinetics)” value with glutamine transporter (FIG. 15) is recorded as “IR dose-dependent increase in Km”. Moreover, the “glutamine-stimulated Isc” value in the data set with glutamine transporter (FIG. 15 legend) is “dose-dependent increase in glutamine-stimulated Isc”. For the same compound, in [3] (setting [8]), the “small intestine mucosa barrier” value was “impairs small intestine mucosa barrier” and the survival of mice result is reported as “has adverse effects on survival of mice”. Also, in data set [3] (setting [9]), the osmotic diarrhea result was “cause osmotic diarrhea” and the survival result is listed as “reduced survival”. Also, in the data set with GI tract mucosa, the “protection of GI tract mucosa from injury caused by chemotherapy or radiation therapy” value was “protects both upper and lower GI tract mucosa from injury”. Also, the “prevention or alleviation of acute diarrhea” value in data set [4] is reported as “fail to show that oral glutamine feeding can prevent or alleviate acute diarrhea”.

As for `O=C(O)c1cc([N+](=O)[O-])ccc1NCCCc1ccccc1` [NPPB, 5-nitro-2-(3-phenylpropylamino)-benzoic acid], the “bumetanide-insensitive Isc after mucosal addition of blocker” value in data set [1] (0-Gy mice) is reported as 0.1±0.01 μeq·h^−1·cm^−2. In data set [2] (0 Gy + forskolin), the “forskolin-stimulated HCO3^− secretion after blocker” value is listed as 0.2±0.01 μeq·h^−1·cm^−2. Further, the “HCO3^− secretion” value in data set [2] (setting [7]) was found to be 0.2±0.01 μeq·h^−1·cm^−2.

As for `C=C[C@@]1(C)CC(=O)[C@]2(O)[C@@]3(C)[C@@H](O)CCC(C)(C)[C@@H]3[C@H](O)[C@H](OC(C)=O)[C@@]2(C)O1` [forskolin], the “forskolin-stimulated Isc” value in data set [1] (0 Gy) is listed as 6.9±0.6 μeq·h^−1·cm^−2; in [1] (3 Gy) it was 7.3±0.5 μeq·h^−1·cm^−2. The “forskolin-stimulated Isc in Cl^−-free solution” value is given as 1.7±0.2 μeq·h^−1·cm^−2 in data set [1] (0 Gy) and 0.3±0.1 μeq·h^−1·cm^−2 in data set [1] (3-Gy irradiated mice). Further, the “HCO3^− secretion” value in data set [2] (0 Gy + forskolin, Cl^− containing lumen solution) is 8.4±0.4 μeq·h^−1·cm^−2; in data set [2] (0 Gy + forskolin, Cl^−-free lumen solution), 8.7±0.4 μeq·h^−1·cm^−2 and 8.7 ± 0.4^ μeq·h^−1·cm^−2; in data set [2] (3 Gy + forskolin, Cl^− containing lumen solution), 0.6 ± 0.2 μeq·h^−1·cm^−2; in data set [2] (3 Gy + forskolin, Cl^− containing lumen solution, listed as Forskolin), 0.6±0.2 μeq·h^−1·cm^−2; in data set [2] (3 Gy + forskolin, Cl^−-free lumen solution), 0.9 ± 0.2^ μeq·h^−1·cm^−2. For the same compound, in [2] (non-irradiated mice, bath Na^+ replaced with NMDG), the “forskolin-stimulated HCO3^− secretion” value is recorded as 0.3±0.01 μeq·h^−1·cm^−2.

Consider `NCCCC[C@H](N)C(=O)O` [lysine], for which the “Isc on addition of lysine to small intestine lumen side” value in the data set with lysine-transporter is “causes an increase in Isc”. For the same compound, the figures for the Km with lysine-transporter (3 Gy IR tissues) and with lysine-transporter (tissues from non-IR mice) were 270 ± 10 µM and 1160 ± 40 µM, respectively. The “lysine-stimulated Isc” value in the data set on lysine-transporter (increasing IR dose, FIG. 16 legend) is on record as “dose-dependent decrease in lysine-stimulated Isc”. In addition, the survival result in data set [3] (setting [9]) is given as “prolongs survival”. Besides, the “effect of oral administration on small intestine healing, paracellular conductance, electrolyte absorption, survival” value in [3] (radiation, chemotherapy and Crohn's disease models, each amino acid) was “improve small intestine healing, reduces paracellular conductance (thereby improving small intestine mucosal barrier mechanism), increases absorption of electrolytes, and/or improves survival in animals”. Also, the “survival of IR mice with oral lysine” value is given as “increased survival; also recorded: can increase survival in mice” in the data set on IR mice and “increased survival” with IR mice (listed as Lysine).

Take sucralfate: in [5], the “reduction of acute GI symptoms (diarrhea prophylaxis)” value is recorded as “only a moderate reduction of acute GI symptoms was achieved”.

Consider `O=c1[nH]cc(F)c(=O)[nH]1` [5-FU, 5-fluorouracil], for which, in the data set with small intestine mucosa, the “net anion secretion (transepithelial ISC)” value is given as “significant increase in net anion secretion” and the “toxicity to small intestine” value was “maximum toxicity to small intestine”.

Regarding `CCCCNc1cc(C(=O)O)cc(S(N)(=O)=O)c1Oc1ccccc1` [bumetanide], the “Isc associated with IR” value in [6] was “abolished almost all of the Isc associated with IR”. In addition, the “basal Isc after bumetanide” value stood at 0.9±0.1 μeq·h^−1·cm^−2 in [1] (0-Gy mice, 1.6±0.2 without) and 0.6±0.1 μeq·h^−1·cm^−2 in [1] (irradiated (3 Gy) tissues, 5.5±0.5 without). Further, the results for the “forskolin-stimulated Isc after bumetanide” value in data set [1] (0 Gy) and in data set [1] (3 Gy) were 1.3±0.2 μeq·h^−1·cm^−2 and 0.4±0.1 μeq·h^−1·cm^−2, respectively. The “basal and forskolin-stimulated increase in Isc” value in data set [1] (bumetanide on bath side, Cl^−-free solution on both sides) is “did not inhibit basal and forskolin-stimulated increase in Isc”. Besides, the “HCO3^− secretion” value in data set [2] (0 Gy + bumetanide, tissues treated with forskolin, Cl^−-free lumen solution) is 8.4 ± 0.4^ μeq·h^−1·cm^−2; in data set [2] (3 Gy + bumetanide, Cl^−-free lumen solution), 0.8 ± 0.1^ns μeq·h^−1·cm^−2.
